Structures can show the parent of a compound that is named as a salt. Where two headings read alike, the source gives them in different places. Where only a bound is given, the exact number is not on record here.

One data set concerns ip L1210 leukemia. Briefly: ip-implanted L1210 leukemia in mice.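 On all read-outs here: each mouse received 10^6 L1210 cells intraperitoneally, with drug treatment also given by the i.p. route.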 To be noted: for In Vivo Antitumor Activity ILS (increase in lifespan): ip L1210 (10^6 cells), drug i.p. Days 1 and 5 at maximally tolerated dose; for Increase in Lifespan (ILS) or Inhibition of Tumor Growth (TGI): ip L1210 Leukemia, optimal doses and optimal schedules.
Data set [1] in a line: in vivo. The note with it: mouse, iv.
Description: (§2) Animals were inoculated iv with 10^6 cells. Increase in lifespan (ILS) is based on median survival time of groups of 6 mice relative to untreated controls.
(§3) The protocols utilized for the evaluation of the antitumor activity of Formula (I) compounds are well established and widely utilized by those skilled in the art of assessing the activity of drugs in preclinical tumor models. These studies generally follow the protocols established by the National Cancer Institute as described by Geran et al., Cancer Chemotherapy Reports, Part 3, Vol. 3, 1-103, 1972.
(§4) Tumors used in these studies P388 leukemia, L1210 leukemia and Lewis lung carcinoma--are maintained by serial transplantation in syngeneic strains of mice, DBA/2 for the leukemias and C57B1/6 for Lewis lung carcinoma. The leukemias are serially transplanted i.p. as ascites cell suspensions while the Lewis lung carcinoma is serially transplanted as a s.c. solid tumor.
(§5) For therapeutic trials, tumors were aseptically removed from donor mice and prepared as suspensions for implantation into test animals which for each tumor are syngeneic female F1 hybrid B6D2F1 mice (C57B1/6×DBA/2). The inoculum level varies with the type of tumor: P388 leukemia is inoculated at 10^6 cells per mouse, L1210 leukemia at 10^5 or 10^6 cells per mouse, and Lewis lung carcinoma at 0.25 ml of a 10 percent (w:v) brei. […] After tumor inoculation, mice are randomized to treatment groups of 6 to 8 mice each. In each experiment, there are three groups of untreated control mice.
(§6) Drugs are dissolved or suspended in appropriate aqueous vehicles and given i.p. or i.v. on various treatment schedules over a range of dosage levels. Animals are housed in shoebox cages and monitored daily for mortality for 30 (L1210), 45 (P388) or 60 (Lewis lung) days.
Data set [2] in a line: in vivo. To be noted: mouse, ip.
Description: (§7) For in vivo studies L1210 cells were implanted i.p. (10^6 per mouse)
(§8) and drugs were administered i.p. on Days 1 and 5. Increase in lifespan
(§9) (ILS) was based on median survival time of groups of 6 mice treated at th
maximally tolerated dose of the drugs.
Another data set deals with iv L1210 leukemia. The note with it: for ILS: iv L1210 (10^6 cells), Days 1 & 5, route ip in table head (iv); for Increase in Lifespan (ILS) or Inhibition of Tumor Growth (TGI): iv L1210 Leukemia, optimal doses and optimal schedules.
In the next data set the test system is ip P388 leukemia. To be noted: ip P388 Leukemia; optimal doses and optimal schedules.
The test system of data set [3] is sc mammary adenocarcinoma 16/c. Briefly: in vivo. Set-up: species or system mouse. The note with it: sc Mammary Adenocarcinoma 16/c; optimal doses and optimal schedules. An excerpt:
(§1) The inoculum varies with the tumor.

A further data set has as its system sc colon carcinoma 26. Briefly: sc-implanted colon carcinoma 26 in mice. The format is in vivo, mouse. The note with it: sc Colon Carcinoma 26; optimal doses and optimal schedules.
Description: as §1

Data set [4] can be described thus: ip-implanted L1210 leukemia in mice.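 Further: each mouse received 10^6 L1210 cells intraperitoneally, with drug treatment also given by the i.p. route.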 The note with it: mouse, in vivo, ip.
Description: as §7, §8, §9
maximally tolerated dose of the drugs.
In a further data set the test system is sc Lewis lung carcinoma. The format is in vivo, mouse. The note with it: sc Lewis Lung Carcinoma; optimal doses and optimal schedules.
Description: as §1

The next data set relates to ip B16 melanoma. The note with it: ip B16 Melanoma; optimal doses and optimal schedules.
Another data set relates to ip colon carcinoma 26. Briefly: ip-implanted colon carcinoma 26 in mice. The note with it: ip Colon Carcinoma 26; optimal doses and optimal schedules. The data set is classed as in vivo, mouse.
Another data set concerns sc M5076 sarcoma. Put plainly: sc-implanted M5076 sarcoma in mice. The format is in vivo, mouse. The note with it: sc M5076 Sarcoma; optimal doses and optimal schedules.
Description: as §1

The next data set is described as follows: Aqueous solubility. The data set is classed as physicochemical.
Data set [5] relates to sc B16 melanoma/F10 subline. Put plainly: sc-implanted B16 melanoma/F10 subline in mice. The data set is classed as in vivo, mouse. The note with it: sc B16 Melanoma/F10 Subline; optimal doses and optimal schedules.
Description: as §1

In the next data set the test system is iv P388 leukemia. The note with it: iv P388 Leukemia; optimal doses and optimal schedules.
Data set [6] deals with sc Madison lung carcinoma. Briefly: sc-implanted Madison lung carcinoma in mice. The data set is classed as in vivo, mouse. To be noted: sc Madison Lung Carcinoma; optimal doses and optimal schedules.
Description: as §1

The subject of another data set is L1210 leukemia cells. Put plainly: cells. The format is cell-based, mouse. The note with it: L1210 suspension culture, continuous exposure, cloning into soft agar; read-out: In Vitro Activity IC50. The protocol: Cells were exposed continuously upon cloning into medium containing 0.2 percent Noble agar. After incubation at 37° C. in a CO2 incubator for 3 days, colonies were stained with viable cell specific formazan stain and, 24 hours later, were enumerated by a colony counter (Biotran II, New Brunswick Scientific Co., Edison, N.J.) adjusted to identify colonies of more than 50 cells. The concentration which reduced cloning efficiency by 50 percent IC50) was determined by interpolation.

Another data set has as its system ip M5076 sarcoma. Briefly: ip-implanted M5076 sarcoma in mice. The note with it: ip M5076 Sarcoma; optimal doses and optimal schedules. The format is in vivo, mouse.
Data set [7] deals with ip B16 melanoma/F10 subline. The note with it: ip B16 Melanoma/F10 Subline; optimal doses and optimal schedules.
Description: (§10) Tumors used in these studies--P388 leukemia and its doxorbicin--and mitoxanrone-resistant sublines, L1210 leukemia, B16 melanoma, B16 melanoma/F10 subline, M5076 sarcoma and colon carcinoma 26--are maintained by serial transplantation in syngeneic strains of mice. For the leukemias, these tumors are maintained in DBA/2 mice. The M5076 sarcoma, the B16 melanoma and its F10 subline are maintained in C57B1/6 mice and the colon sarcinoma 26 is maintained in BALB/c mice. The leukemias and the M5076 sarcoma are serially transplanted i.p. as ascites cell suspensions while the B16 melanoma lines and the colon carcinoma 26 are serially transplanted as s.c. solid tumors.
(§11) For therapeutic trials, tumors are aseptically removed from donor mice and prepared as suspensions for implantation ip into test animals. The test animals for the colon carcinoma 26 are female BALB/c mice (20-25 gm). The test animals for the other tumor models are syngeneic female F1 hybrid B6D2F1 mice (C57B1/6 x DBA/2). The inoculum level varies with the type of tumor: P388 leukemia is inoculated at 10^6 cells per mouse, L1210 leukemia at 10^5 or 10^6 cells per mouse, M5076 sarcoma at 5×10^6 cells per mouse. For implantation of the B16 melanoma lines and the colon carcinoma 26, s.c. tumors from donor mice are minced and homogenized in loose fitting teflon glass homogenizer to give a tumor brei. The inoculum levels are 0.5 ml of a 10 percent (w:v) brei of the B16 melanoma lines and 0.5 ml of a 5 percent (w:v) brei of colon carcinoma 26. After tumor inoculation, mice randomized to treatment groups comprised of 6-8 mice each. In each experiment, there are three groups of untreated control mice. Drugs are dissolved or suspended in appropriate aqueous vehicles and given by a variety of routes and schedules of administration over a range of dose levels. Animals are housed in shoebox cages and are monitored daily for mortality for 30 (L1210), 45 (P388) or 60 (B16, M5076, colon 26) days.
In the next data set the test system is sc ADJ-PC6 plasmacytoma. Briefly: sc-implanted ADJ-PC6 plasmacytoma in mice. The format is in vivo, mouse. The note with it: sc ADJ-PC6 Plasmacytoma; optimal doses and optimal schedules.
In data set [8] the test system is sc colon adenocarcinoma 38. To be noted: sc Colon Adenocarcinoma 38; optimal doses and optimal schedules.
Description: (§12) Inhibition of tumor growth (TGI) is based on mean tumor volume of groups of 7 or 8 mice relative to untreated controls. Tumors were measured between Days 12 and 19 (except Day 24 for Colon 51 and Day 31 for Colon 38).
(§13) Tumors used in these studies are maintained by serial transplantation in syngeneic strains of mice C57BL/6 for Lewis lung carcinoma, B16 melanoma and its F10 subline, M5076 sarcoma and colon adenocarcinoma 38; BALB/c for colon carcinoma 26, ADJ-PC6 plasmacytoma Madison lung carcinoma and colon adenocarcinoma 51, C3H for mammary adenocarcinoma 16/c. With the exception of the M5076 sarcoma, which is maintained as a i.p ascites cell suspension, all of the tumors were serially transplanted as s.c. solid tumors.
(§14) For therapeutic trials, tumors were aseptically removed from donor mice and prepared for implantation s.c. into test animals. The test animals for Lewis lung carcinoma, B16 melanoma and its F10 subline, M5076 sarcoma and colon adenocarcinoma 38 are syngeneic female F1 hybrid B6D2F mice (C57B1/6×DBA/2). ADJ-PC6 plasmacytoma and colon carcinoma 26 are evaluated in female BALB/c mice. Madison lung carcinoma and colon adenocarcinoma 51 are evaluated in syngeneic female F1 hybrid CD2F1 mice (BALB/c×DBA/2). Mammary adenocarcinoma 16/c is evaluated in female C3H mice. The inoculum varies with the tumor. Colon adenocarcinomas 38 is implanted as 2 mm fragments by trochar. M5076 sarcoma and ADJ-PC6 plasmacytoma are implanted as cell suspensions at 5×10^6 and 2×10^6 cells per mouse, respectively. Colon carcinoma 26, colon adenocarcinoma 51, Lewis lung carcinoma, Madison lung carcinoma and B16 melanoma and its F10 subline are implanted as tumor breis prepared as described above in a volume of 0.5 ml. The brei concentration was 10 percent (w:v) except for colon carcinoma 26 for which the brei concentration was 5 percent (w:v). After tumor inoculation, mice are randomized to treatment groups of 7 or 8 mice. In each experiment, there are three groups of untreated control mice.
(§15) Drugs are dissolved or suspended in appropriate aqueous vehicles and given by a variety of routes of administration and treatment schedules over a range of dosage levels. Animals are housed in shoebox cages and are monitored daily for mortality. […] Time for tumor measurement is dependent on the different rates of tumor growth of the different tumors: the most rapidly growing tumors such as the Lewis and Madison lung tumors, B16 melanoma and its F10 subline were measured between Days 12 and 16. The slower growing tumors were measured at later time points--17 days for M5076 sarcoma, 16 or 19 days for mammary adenocarcinoma 16/c, 19 days for ADJ-PC6 plasmacytoma and colon carcinoma 26, 24 days for colon adenocarcinoma 51, and 31 days for colon adenocarcinoma 38.
For data set [9], the system named is sc colon adenocarcinoma 51. The data set is classed as in vivo, mouse. The note with it: sc Colon Adenocarcinoma 51; optimal doses and optimal schedules.
Description: as §1

The subject of a further data set is sc B16 melanoma. The note with it: sc B16 Melanoma; optimal doses and optimal schedules.

Description for ip L1210 leukemia: as §7, §8, §9
maximally tolerated dose of the drugs.
Description for ip M5076 sarcoma: as §10, §11
Description for ip colon carcinoma 26: as §10, §11
Description for iv L1210 leukemia: as §2, §3, §4, §5, §6
Description for iv P388 leukemia: as §4, §5, §6
Description for sc ADJ-PC6 plasmacytoma: as §12, §13, §14, §15

In general, ILS refers to how much longer treated animals lived than controls. A high value points to much gain in survival. Take `CC[C@@](O)(C(=O)O)c1cc2n(c(=O)c1CO)Cc1cc3c(CN(C)C)c(O)ccc3nc1-2` [21S, Sodium Salt]: the “In Vivo Antitumor Activity ILS (increase in lifespan)” value in the data set with ip L1210 leukemia is greater than 200%. For the same compound, the MTD in the data set “in vivo [1]” and in “in vivo [2]” was 54 mg/kg in each case. The “fold less potent than the three acid salts” value in the data set on iv L1210 leukemia (by maximally tolerated dose, iv L1210) is “about 3.5 fold”. Also, the ILS in the data set on iv L1210 leukemia (6.5 mg/kg) is on record as 33%; in the data set with iv L1210 leukemia (12 mg/kg), 67%; in the data set with iv L1210 leukemia (19 mg/kg) it was 100%; with iv L1210 leukemia (32 mg/kg), 133%; in the data set on iv L1210 leukemia (54 mg/kg) it was 208%; in the data set on iv L1210 leukemia (90 mg/kg), “toxic”.

For orientation: IC50 means the concentration that gives 50% inhibition. As to `CC[C@@]1(O)C(=O)OCc2c1cc1n(c2=O)Cc2cc3cc(O)ccc3nc2-1` [10-Hydroxycamptothecin, (20 S) 10-Hydroxycamptothecin, reference compound], the “Increase in Lifespan (ILS) or Inhibition of Tumor Growth (TGI)” value (from here on “Increase in Lifespan (ILS) or Inhibition”) in the data set with ip P388 leukemia was “Curative”; in data set [3] it was 61 % TGI; in the data set on sc colon carcinoma 26, 37 % TGI; in the data set with ip L1210 leukemia, 94 % ILS; with sc Lewis lung carcinoma, 4 % TGI; with ip B16 melanoma, 95 % ILS. The “Increase in Lifespan (ILS) or Inhibition” value was “Curative” with ip colon carcinoma 26; 66 % TGI in the data set on sc M5076 sarcoma; 58 % TGI in [5]; 100 % ILS in the data set on iv L1210 leukemia; 40 % ILS in the data set with iv P388 leukemia; 33 % TGI in [6]. Also, the “Increase in Lifespan (ILS) or Inhibition” value stood at 98 % ILS in the data set on ip M5076 sarcoma, 100 % ILS in [7] and 76 % TGI in the data set on sc ADJ-PC6 plasmacytoma. Further, in data set [4], the MTD was found to be 9 mg/kg. For the same compound, the “In Vivo Antitumor Activity ILS (increase in lifespan)” value in the data set with ip L1210 leukemia stood at 94%. In the data set “Aqueous solubility”, the “solubility in water / aqueous vehicles” value is on record as “insolubility in aqueous vehicles”. Further, the IC50 in the data set with L1210 leukemia cells came out at 0.018 µM.

In the case of `CC[C@@]1(O)C(=O)OCc2c1cc1n(c2=O)Cc2cc3ccccc3nc2-1` [Camptothecin], the “Increase in Lifespan (ILS) or Inhibition” value in the data set with ip P388 leukemia was “Curative”; in data set [3], 99 % TGI; in the data set on sc colon carcinoma 26 it was 66 % TGI; in the data set on ip L1210 leukemia, 172 % ILS; in data set [8], 100 % TGI; in [9] it was 75 % TGI. The “Increase in Lifespan (ILS) or Inhibition” value in the data set on sc Lewis lung carcinoma came out at 92 % TGI; in the data set on ip B16 melanoma, 36 % ILS; with ip colon carcinoma 26, 50 % ILS; with sc M5076 sarcoma, 100 % TGI; in data set [5], 90 % TGI; in the data set on iv L1210 leukemia, 136 % ILS. For the same compound, the “Increase in Lifespan (ILS) or Inhibition” value in the data set on iv P388 leukemia was found to be 75 % ILS; in data set [6], 63 % TGI; with ip M5076 sarcoma it was 81 % ILS; in the data set on sc B16 melanoma, 78 % TGI; in data set [7], 68 % ILS; in the data set with sc ADJ-PC6 plasmacytoma it was 100 % TGI. Further, the “solubility in water / aqueous vehicles” value in the data set “Aqueous solubility” is given as “insolubility in aqueous vehicles”.
